Tests used:
[1] = test system: mouse keratinocytes; test: Ca2+ imaging in cultured mouse keratinocytes; type: cell-based; conditions: inhibitor 10 μM
Method: Basal keratinocytes were separated from the cornified sheets by filtration through a […] cell strainer. Keratinocytes were plated on collagen I-coated dishes or glass coverslips and grown in EME media (Gibco, Gaithersburg, MD) containing 8% chelex (Bio-rad, Hercules, CA)-treated FBS with the final Ca^2+ adjusted to 0.05 mM, bovine pituitary extract (50 μg/mL), epidermal growth factor (5 ng/mL), and lx antibiotics/antimycotics (Gibco, Gaithersburg, MD) in a humidified incubator with 5% CO2 at 37° C. for 5-7 days until use. To knockdown Trpv4 in isolated keratinocytes from newborn keratinocyte-Trpv4 cKO mice, cells were treated with 4-OH tamoxifen at 500 nM for 72 h.
In vitro and ex vivo Ca^2+ imaging. […] Ca^2+ imaging of cultured cells in response to chemicals was conducted after loading with 5 μM Fura2-AM (Invitrogen, Waltham, MA) for 45 min after a ratiometric Ca^2+-imaging protocol with 340/380-nm blue light for dual excitation. Ratios of emissions were acquired at 0.5 Hz. ΔR/R0 was determined as the fraction of the increase of a given ratio over baseline ratio divided by baseline ratio. […] Control cells received vehicles.

[2] = target: T1, hTRPV4-R269H (Homo sapiens, UniProt Q9HBA0, R269H); test: Inside-out patch-clamp, hTRPV4-R269H; type: biochemical; conditions: 5 μM LPC 18:1
T1 construct: expressed in transfected cells; host or cells: HEK293
Method: (§1) Cell culture and transfection. HEK293 cells (ATCC® CRL-1573) were cultured on poly-D-lysine coated coverslips in 24-well plate containing DMEM media with high-Glucose (Gibco, Gaithersburg, MD) supplemented with 10% fetal bovine serum (FBS, HyClone Laboratories, Logan, UT) and 100 U/mL of penicillin/streptomycin (Gibco, Gaithersburg, MD). Cell cultures were maintained with 5% of CO2 in a humidified incubator at 37° C. HEK cells were transfected with rat or human wild type or mutant TRPV4 channels with EGFP or YFP coupled to their C-termini (1.5 μg of plasmid for excised patch clamp and Ca^2+ imaging and 200 ng for single-channel experiments). […]
(§2) Electrophysiology. Currents were recorded using the inside-out configuration of the patch-clamp technique (Hamill et al. Pflugers Arch. 1981, 391, 85-100). […] Mean current values in response to GSK1016790A or LPC 18:1 were measured after channel activation had reached the steady-state (˜3 min). […] Currents were low-pass filtered at 2 kHz and sampled at 10 kHz with an EPC 10 amplifier (HEKA Elektronik) and were plotted and analyzed with Igor Pro (Wavemetrics Inc.).

[3] = target: T2, hTRPV4-121AAWAA125 (Homo sapiens, UniProt Q9HBA0, K121A/K125A/R122A/R124A); test: Inside-out patch-clamp, hTRPV4-121AAWAA125; type: biochemical; conditions: 5 μM LPC 18:1
T2 construct: expressed in transfected cells; host or cells: HEK293
Method: as §1, §2

[4] = target: rTRPV4-R746D (Rattus norvegicus, UniProt Q9ERZ8, R746D); test: In vitro interaction (overlay) assay LPC-TRPV4-R746D; type: binding; parameters: made in house; host or cells: HEK293 cells, surface protein fraction; conditions: 200 pmol per spot
Method: (§3) In vitro interaction assays of LPC-TRPV4. Surface proteins were obtained from HEK293 cells transiently expressing rTRPV4-EGFP channels using the Pierce Cell Surface Isolation kit (Pierce Biotechnology, Rockford, IL) following the manufacturer's instructions. Overlay assays were performed as previously described (Morales-Lazaro et al. Nat. Commun. 2016, 7, 13092). In brief, LPC 18:1 was spotted (200 pmol per spot) onto a nitrocellulose membrane (GE Healthcare, Pittsburgh, PA) and then blocked with 1% fatty acid-free BSA (Calbiochem) and 6% fat-free dried milk in PBS. Membranes were then incubated with the surface protein solutions and exposed to anti-GFP antibody (Sigma, St. Louis, MO) diluted 1:1000 in 3% fat-free dried milk in PBST (with 0.1% of Tween). Membranes were incubated with horseradish peroxidase-conjugated secondary anti-rabbit antibody (Cell Signaling Technology) diluted 1:7500 in 6% fat-free dried milk in PBST. The binding of rTRPV4-EGFP and TRPV4-R746D-EGFP to the lipid-containing spots was visualized by chemiluminescence by exposing the blot for 15 min (Amersham Bioscience, Piscataway, NJ). Semi-quantitative densitometric analysis was done using ImageJ (NIH) and expressed as relative protein levels of TRPV4 bound to each spot.

[5] = target: rTRPV4 (Rattus norvegicus, UniProt Q9ERZ8); test: In vitro interaction (overlay) assay LPC-TRPV4; type: binding; parameters: made in house; host or cells: HEK293 cells, surface proteins isolated with Pierce Cell Surface Isolation kit; conditions: 200 pmol per spot
Method: as §3

rTRPV4-R746D, sequence (Q9ERZ8 whole entry R746D): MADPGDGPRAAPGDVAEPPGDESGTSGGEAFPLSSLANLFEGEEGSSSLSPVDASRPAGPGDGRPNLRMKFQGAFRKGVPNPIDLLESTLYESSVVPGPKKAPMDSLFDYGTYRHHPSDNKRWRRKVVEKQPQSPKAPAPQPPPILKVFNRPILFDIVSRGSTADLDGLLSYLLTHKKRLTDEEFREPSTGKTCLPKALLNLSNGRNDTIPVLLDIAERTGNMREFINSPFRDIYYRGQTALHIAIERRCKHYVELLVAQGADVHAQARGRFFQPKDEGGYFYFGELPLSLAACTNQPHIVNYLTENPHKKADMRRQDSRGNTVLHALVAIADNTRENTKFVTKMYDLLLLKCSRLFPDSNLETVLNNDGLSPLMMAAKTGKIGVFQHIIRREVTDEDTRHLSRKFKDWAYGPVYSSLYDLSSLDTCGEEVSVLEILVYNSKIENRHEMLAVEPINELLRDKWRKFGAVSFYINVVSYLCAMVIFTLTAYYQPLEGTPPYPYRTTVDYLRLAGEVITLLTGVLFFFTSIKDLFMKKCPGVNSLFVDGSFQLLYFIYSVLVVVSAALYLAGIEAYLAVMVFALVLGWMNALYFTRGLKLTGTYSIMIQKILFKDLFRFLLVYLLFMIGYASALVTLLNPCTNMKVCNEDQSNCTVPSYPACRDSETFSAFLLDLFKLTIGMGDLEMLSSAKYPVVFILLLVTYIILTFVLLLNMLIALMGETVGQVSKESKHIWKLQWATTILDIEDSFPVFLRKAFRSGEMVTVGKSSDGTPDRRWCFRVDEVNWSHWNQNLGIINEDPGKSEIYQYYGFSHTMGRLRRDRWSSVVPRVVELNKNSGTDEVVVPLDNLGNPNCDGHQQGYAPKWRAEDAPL
T2 sequence (Q9HBA0 whole entry K121A/R122A/R124A/K125A): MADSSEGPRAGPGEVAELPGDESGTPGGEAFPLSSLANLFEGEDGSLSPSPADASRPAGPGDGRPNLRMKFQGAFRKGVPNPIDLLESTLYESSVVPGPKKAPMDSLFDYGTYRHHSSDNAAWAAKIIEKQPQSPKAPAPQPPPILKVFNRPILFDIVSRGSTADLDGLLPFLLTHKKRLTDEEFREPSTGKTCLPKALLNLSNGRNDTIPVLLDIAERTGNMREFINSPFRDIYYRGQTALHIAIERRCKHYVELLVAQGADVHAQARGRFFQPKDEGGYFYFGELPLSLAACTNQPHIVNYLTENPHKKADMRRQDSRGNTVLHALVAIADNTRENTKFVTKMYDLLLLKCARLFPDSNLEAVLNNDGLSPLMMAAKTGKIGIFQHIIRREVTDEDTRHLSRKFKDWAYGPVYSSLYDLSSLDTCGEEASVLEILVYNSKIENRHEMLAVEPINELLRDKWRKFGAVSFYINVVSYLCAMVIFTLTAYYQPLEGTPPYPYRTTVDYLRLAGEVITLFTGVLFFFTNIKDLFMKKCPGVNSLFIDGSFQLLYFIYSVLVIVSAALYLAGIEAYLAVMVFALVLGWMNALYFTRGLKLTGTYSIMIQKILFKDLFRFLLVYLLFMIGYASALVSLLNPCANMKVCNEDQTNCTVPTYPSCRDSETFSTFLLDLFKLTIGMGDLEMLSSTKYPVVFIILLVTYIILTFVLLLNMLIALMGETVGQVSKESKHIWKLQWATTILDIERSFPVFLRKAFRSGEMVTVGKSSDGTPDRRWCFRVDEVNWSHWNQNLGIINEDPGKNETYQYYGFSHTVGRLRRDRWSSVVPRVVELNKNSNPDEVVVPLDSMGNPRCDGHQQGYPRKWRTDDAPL
rTRPV4, sequence (Q9ERZ8 whole entry): as the sequence (Q9ERZ8 whole entry R746D) above, with D746R counted along it
T1 sequence (Q9HBA0 whole entry R269H): as the sequence (Q9HBA0 whole entry K121A/R122A/R124A/K125A) above, with A121K, A122R, A124R, A125K, R269H counted along it

Row | Molecule | effect on LPA 18:1 (10 μM) induced Ca2+ signal [1] | effect on LPC (10 μM) induced Ca2+ signal [1] | average activation of currents, normalized to 1 μM GSK101 [2] [%] | average activation of currents, normalized to 1 μM GSK101 [3] [%] | binding of LPC 18:1 to rTRPV4-R746D relative to rTRPV4 [4] | binding of LPC 18:1 to rTRPV4-R746D relative to rTRPV4 ([4]; listed as LPC (18:1)) | binding of LPC 18:1 to rTRPV4 [5]
1 | Cc1c(C(=O)Nc2cccc(C(F)(F)F)c2)cc(-c2ccccc2)n1CCCN1CCOCC1 [HC067047] | remained unchanged | significantly reduced | – | – | – | – | –
2 | LPC 18:1 | – | – | 42±6 | 43±4 | significantly reduced binding | significant reduction of this interaction | demonstrated binding

— patent US20240002846A1, “COMPOSITIONS AND METHODS FOR THE DIAGNOSIS AND TREATMENT OF ITCH” (Duke University, priority 2020, published 2024)
